Test results: US12145947B2, “Pyrimidine based modulators and uses thereof” (Quanta Therapeutics, Inc., priority 2022, dated 2024)

How the values were obtained:
[1] = test system: GP2D cells (KRAS G12D), phospho-ERK; assay: pERK In Cell Western (ICW) assay, GP2D cells; type: cell-based; settings: Table 4, 3 hours
Procedure: pERK ICW is a high throughput screening assay to evaluate the cellular potency of mutant KRAS small molecule inhibitors. KRAS mutant cell lines AGS and GP2D (KRAS^G12D) were purchased from ATCC and maintained respectively in RPMI and DMEM medium supplemented with 10% fetal bovine serum and Penicillin/Streptomycin.
Cells grown in exponential phase were trypsinized, resuspended in fresh media, and viable cells were counted using a cell counter with Trypan Blue (BioRad TC20). Cells were seeded into 384-well plate (Greiner 781091) at density of 5,000 cells/well for AGS and 10,000 cells/well for GP2D and allowed to grow overnight in a 37° C. CO2 incubator. The next day, compounds were dispensed into wells with a ½ log, 10-point serial dilution and top concentration of […] using Tecan D300e dispenser and incubated for 3 hours in a 37° C. CO2 incubator. Cells were then fixed with paraformaldehyde (Electron Microscopy Sciences, 15710, 4% final concentration) for 30 min, permeabilized with wash buffer (1×PBS+0.1% Triton X-100) for 30 min and blocked with Odyssey blocking buffer (Li—COR 927-70001) for 1 hour, all at room temperature (RT). Phospho-ERK antibody (CST 4370L) was diluted 1:500 in Odyssey blocking+0.2% Tween 20 and incubated with cells overnight at 4° C. The next day, plates were washed 5× with wash buffer, incubated with IRDye 800 CW, Goat anti-Rabbit secondary antibody (Li—COR 926-32211, 1:500) and DRAQ5 (CST 4084L, 1:5,000) diluted in Odyssey blocking+0.2% Tween 20 for 1 hour, washed 5×, and imaged on an Odyssey CLx imaging system.
For data analysis, signal intensities from 800 (phosphor-ERK) and 700 (DRAQ5) channels were extracted, and phospho-ERK signals were normalized to DRAQ5 signals for each well and percent of DMSO control values were computed. Data were then imported into Graphpad Prism to compute half-maximal inhibitory concentrations (IC50) using a 4-parameter variable slope model. Z-factor for each plate was computed from signals derived from wells treated with either DMSO or […] of Trametinib. AGS pERK ICW (Method B) IC50 (uM) values of selected compounds are depicted in Table 2 with compounds having a value 0.001 uM to 0.01 uM as ++++; >0.01 uM to 0.1 uM as +++; >0.1 uM to 1 uM as ++; 1 uM to 10 uM as + and >10 uM as NA.

[2] = molecular target: T1, KRAS G12D/RAF1 (Homo sapiens, UniProt P01116, G12D); assay: Protein-protein interaction (PPI) HTRF assay KRAS G12D/RAF1; type: binding
T1 construct: His6-MBP (N, cleaved yes); made in house; host or cells: E. coli
T1 sequence (P01116 with tags, fused parts or gaps isoform P01116-2 G12D): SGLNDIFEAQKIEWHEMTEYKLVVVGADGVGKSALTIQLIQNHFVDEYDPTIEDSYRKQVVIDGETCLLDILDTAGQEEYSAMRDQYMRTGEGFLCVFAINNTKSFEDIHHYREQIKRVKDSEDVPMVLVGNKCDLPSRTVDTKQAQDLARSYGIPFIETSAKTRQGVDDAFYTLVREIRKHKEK
Procedure, shortened: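 HTRF pairing of His-tagged RAF1 (52-131) plus Tb-cryptate donor with GppNHp-exchanged biotin-RAS (KRAS 1-169 wt/G12D/G12V, NRAS wt) plus streptavidin-d2 acceptor; compound sits 30 min with RAS first, then 1 h RT with RAF1. IC50 derived from 665/615 ratio, untagged RAF1 defining full inhibition.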

Compound	IC50 [1] [nM]	IC50 ([2]; Table 4) [nM]	IC50 ([2]; Table 2) [nM]
CN(C)CC1(COc2nc(N3C[C@H]4CC[C@@H](C3)N4)c(C#N)c(N3CC4(CCc5sc(N)c(C#N)c54)C3)n2)CC1(F)F (mixture of isomers) [Compound 74, 2-amino-1′-[5-cyano-6-(3,8-diazabicyclo[3.2.1]octan-3-yl)-2-[[1-[(dimethylamino)methyl]-2,2-difluoro-cyclopropyl]methoxy]pyrimidin-4-yl]spiro[5,6-dihydrocyclopenta[b]thiophene-4,3′-azetidine]-3-carbonitrile]	1000 to 10000	10000 to 100000	–
CN(C)C(=O)c1nn2c(c1Cl)CN(c1nc(OC[C@@]34CCCN3C[C@H](F)C4)nc(N3CC4(CCc5sc(N)c(C#N)c54)C3)c1C#N)CCC2 [Compound 2, 5-[6-(2-amino-3-cyano-spiro[5,6-dihydrocyclopenta[b]thiophene-4,3′-azetidine]-1′-yl)-5-cyano-2-[[(2R,8S)-2-fluoro-1,2,3,5,6,7-hexahydropyrrolizin-8-yl]methoxy]pyrimidin-4-yl]-3-chloro-N,N-dimethyl-4,6,7,8-tetrahydropyrazolo[1,5-a][1,4]diazepine-2-carboxamide]	1 to 10	100 to 1000	100 to 1000
CN(C)C(=O)c1nn2c(c1Cl)CN(c1nc(OC[C@@]34CCCN3C[C@H](F)C4)nc(N3CC4(CCCc5sc(N)c(C#N)c54)C3)c1C#N)CCC2 [Compound 3, 5-[6-(2-amino-3-cyano-spiro[6,7-dihydro-5H-benzothiophene-4,3′-azetidine]-1′-yl)-5-cyano-2-[[(2R,8S)-2-fluoro-1,2,3,5,6,7-hexahydropyrrolizin-8-yl]methoxy]pyrimidin-4-yl]-3-chloro-N,N-dimethyl-4,6,7,8-tetrahydropyrazolo[1,5-a][1,4]diazepine-2-carboxamide]	1 to 10	1000 to 10000	10000 to 100000
N#Cc1c(N2C[C@H]3CC[C@@H](C2)N3)nc(OCC2(CN3CCOCC3)CC2)nc1N1CC2(CCc3sc(N)c(C#N)c32)C1 [Compound 4, 2-amino-1′-[5-cyano-2-[[1-(morpholinomethyl)cyclopropyl]methoxy]-6-[(1R,5S)-3,8-diazabicyclo[3.2.1]octan-3-yl]pyrimidin-4-yl]spiro[5,6-dihydrocyclopenta[b]thiophene-4,3′-azetidine]-3-carbonitrile]	1 to 10	< 100	–
CN(C)C(=O)c1nn2c(c1Cl)CN(c1nc(OCC3(CN4CCOCC4)CC3)nc(N3CC4(CCc5sc(N)c(C#N)c54)C3)c1C#N)CCC2 [Compound 5, 5-[6-(2-amino-3-cyano-spiro[5,6-dihydrocyclopenta[b]thiophene-4,3′-azetidine]-1′-yl)-5-cyano-2-[[1-(morpholinomethyl)cyclopropyl]methoxy]pyrimidin-4-yl]-3-chloro-N,N-dimethyl-4,6,7,8-tetrahydropyrazolo[1,5-a][1,4]diazepine-2-carboxamide]	1 to 10	1000 to 10000	–
N#Cc1c(N)sc2c1C1(CC2)CN(c2nc(OC[C@@]34CCCN3C[C@H](F)C4)nc(N3CCC[C@]4(C3)NC(=O)NC4=O)c2F)C1 [Compound 7, 2-amino-1′-[6-[(5R)-2,4-dioxo-1,3,9-triazaspiro[4.5]decan-9-yl]-5-fluoro-2-[[(2R,8S)-2-fluoro-1,2,3,5,6,7-hexahydropyrrolizin-8-yl]methoxy]pyrimidin-4-yl]spiro[5,6-dihydrocyclopenta[b]thiophene-4,3′-azetidine]-3-carbonitrile]	100 to 1000	100 to 1000	–
CN(C)C(=O)c1cc2n(n1)CCCN(c1nc(OC[C@@]34CCCN3C[C@H](F)C4)nc(N3CC4(CCc5sc(N)c(C#N)c54)C3)c1C#N)C2 [Compound 8, 5-[6-(2-amino-3-cyano-spiro[5,6-dihydrocyclopenta[b]thiophene-4,3′-azetidine]-1′-yl)-5-cyano-2-[[(2R,8S)-2-fluoro-1,2,3,5,6,7-hexahydropyrrolizin-8-yl]methoxy]pyrimidin-4-yl]-N,N-dimethyl-4,6,7,8-tetrahydropyrazolo[1,5-a][1,4]diazepine-2-carboxamide]	1 to 10	1000 to 10000	–
CN(C)C(=O)c1nn2c(c1Cl)CN(c1nc(OC[C@@]34CCCN3C[C@H](F)C4)nc(N3CC4(CCc5sc(N)c(C#N)c54)C3)c1F)CCC2 [Compound 9, 5-[6-(2-amino-3-cyano-spiro[5,6-dihydrocyclopenta[b]thiophene-4,3′-azetidine]-1′-yl)-5-fluoro-2-[[(2R,8S)-2-fluoro-1,2,3,5,6,7-hexahydropyrrolizin-8-yl]methoxy]pyrimidin-4-yl]-3-chloro-N,N-dimethyl-4,6,7,8-tetrahydropyrazolo[1,5-a][1,4]diazepine-2-carboxamide]	10 to 100	1000 to 10000	–
CN(C)C(=O)c1nn2c(c1Cl)CN(c1nc(OC[C@@]34CCCN3C[C@H](F)C4)nc(N3CC4(CCCCc5sc(N)c(C#N)c54)C3)c1C#N)CCC2 [Compound 10, 5-[6-(2-amino-3-cyano-spiro[5,6,7,8-tetrahydrocyclohepta[b]thiophene-4,3′-azetidine]-1′-yl)-5-cyano-2-[[(2R,8S)-2-fluoro-1,2,3,5,6,7-hexahydropyrrolizin-8-yl]methoxy]pyrimidin-4-yl]-3-chloro-N,N-dimethyl-4,6,7,8-tetrahydropyrazolo[1,5-a][1,4]diazepine-2-carboxamide]	10 to 100	1000 to 10000	–
N#Cc1c(N2CC3(CCc4sc(N)c(C#N)c43)C2)nc(OC[C@@]23CCCN2C[C@H](F)C3)nc1N1CCC[C@]2(C1)NC(=O)NC2=O [Compound 11, 2-amino-1′-[5-cyano-6-[(5R)-2,4-dioxo-1,3,9-triazaspiro[4.5]decan-9-yl]-2-[[(2R,8S)-2-fluoro-1,2,3,5,6,7-hexahydropyrrolizin-8-yl]methoxy]pyrimidin-4-yl]spiro[5,6-dihydrocyclopenta[b]thiophene-4,3′-azetidine]-3-carbonitrile]	1000 to 10000	100 to 1000	–
N#Cc1c(N2CCCC3(C2)NC(=O)NC3=O)nc(OC[C@@]23CCCN2C[C@H](F)C3)nc1N1CC2(CCc3sc(N)c(C#N)c32)C1 (stereo partly drawn) [Compound 12, 2-amino-1′-[5-cyano-6-(2,4-dioxo-1,3,9-triazaspiro[4.5]decan-9-yl)-2-[[(2R,8S)-2-fluoro-1,2,3,5,6,7-hexahydropyrrolizin-8-yl]methoxy]pyrimidin-4-yl]spiro[5,6-dihydrocyclopenta[b]thiophene-4,3′-azetidine]-3-carbonitrile]	1000 to 10000	100 to 1000	–
CC(=O)c1nn2c(c1Cl)CN(c1nc(OC[C@@]34CCCN3C[C@H](F)C4)nc(N3CC4(CCc5sc(N)c(C#N)c54)C3)c1C#N)CCC2 [Compound 13, 1′-[6-(2-acetyl-3-chloro-4,6,7,8-tetrahydropyrazolo[1,5-a][1,4]diazepin-5-yl)-5-cyano-2-[[(2R,8S)-2-fluoro-1,2,3,5,6,7-hexahydropyrrolizin-8-yl]methoxy]pyrimidin-4-yl]-2-amino-spiro[5,6-dihydrocyclopenta[b]thiophene-4,3′-azetidine]-3-carbonitrile]	1 to 10	1000 to 10000	–
CC1CC2(CN(c3nc(OC[C@@]45CCCN4C[C@H](F)C5)nc(N4CCCn5nc(C(=O)N(C)C)c(Cl)c5C4)c3C#N)C2)c2c1sc(N)c2C#N (stereo partly drawn) [Compound 14, 5-[6-(2-amino-3-cyano-6-methyl-spiro[5,6-dihydrocyclopenta[b]thiophene-4,3′-azetidine]-1′-yl)-5-cyano-2-[[(2R,8S)-2-fluoro-1,2,3,5,6,7-hexahydropyrrolizin-8-yl]methoxy]pyrimidin-4-yl]-3-chloro-N,N-dimethyl-4,6,7,8-tetrahydropyrazolo[1,5-a][1,4]diazepine-2-carboxamide]	1 to 10	100 to 1000	–
N#Cc1c(N)sc2c1C1(CC2)CN(c2nc(OC[C@@]34CCCN3C[C@H](F)C4)nc(N3C[C@H]4CC[C@@H](C3)N4)c2F)C1 [Compound 15, 2-amino-1′-[6-(3,8-diazabicyclo[3.2.1]octan-3-yl)-5-fluoro-2-[[(2R,8S)-2-fluoro-1,2,3,5,6,7-hexahydropyrrolizin-8-yl]methoxy]pyrimidin-4-yl]spiro[5,6-dihydrocyclopenta[b]thiophene-4,3′-azetidine]-3-carbonitrile]	10 to 100	100 to 1000	–
